From ChEMBL document CHEMBL1201862, “PubChem BioAssay data set” (2004)
The source made the active and inactive calls.

What was measured:
[1] = inhibitors of Vif binding to APOBEC3G peptide, primary screen, biochemical, TR-FRET, GST-Vif 1-94, biotin-A3G peptide, dose response retest (AID 1117319); format: functional;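 further: TR-FRET signal of purified GST-Vif binding a biotinylated A3G peptide; inhibitors lower the FRET signal by blocking Vif and A3G binding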
cells = format: functional, cell-based; conditions: HEK-CNG
Galanin receptor type 3 = target: T1, Galanin receptor type 3 (Homo sapiens, UniProt O60755); assay: Fluorescence-based cell-based primary high throughput dose response assay to identify antagonists of the Galanin Receptor 3 (GalR3).; format: functional
T1 sequence (O60755 whole entry): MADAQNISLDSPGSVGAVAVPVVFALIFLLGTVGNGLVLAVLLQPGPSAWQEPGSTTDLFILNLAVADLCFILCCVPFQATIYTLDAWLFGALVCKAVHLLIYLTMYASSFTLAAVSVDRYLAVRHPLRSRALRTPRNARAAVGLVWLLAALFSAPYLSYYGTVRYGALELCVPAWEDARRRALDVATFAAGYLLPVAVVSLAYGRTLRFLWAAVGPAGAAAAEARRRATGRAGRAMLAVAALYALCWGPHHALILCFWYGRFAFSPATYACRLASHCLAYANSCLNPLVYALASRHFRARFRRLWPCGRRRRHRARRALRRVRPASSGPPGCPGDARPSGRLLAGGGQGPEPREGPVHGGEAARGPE

[2] = M. tuberculosis H37Rv growth inhibitors, H37Rv strain (AID 1626); format: functional
[3] = HepG2 cell cytotoxicity, dose response, cytotoxicity control for Shn3 inhibitor project, CellTiter-Glo, cherry-picked (AID 624134); format: functional, cell-based
[4] = control 3'UTR Renilla luciferase suppression, dose response, counter-screen for Shn3 inhibitor project, cell-based, Clone20-Shn3RL, cherry-picked (AID 624133); format: functional
[5] = Shn3 3'UTR reporter inhibitors, dose response, cell-based, Clone20 osteoblasts, firefly luciferase, cherry-picked (AID 624132); format: functional;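 further: firefly luciferase luminescence from reporter carrying the Shn3 3'UTR in osteoblasts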
[6] = inhibitors of clade B AD8 Env fusion, dose response, cell-based, cherry-pick (AID 652062); format: functional;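 further: luciferase signal from cell-cell fusion driven by HIV-1 clade B AD8 Env; potency is for inhibitors of fusion seen as a drop in luminescence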
[7] = target: T2, Zinc finger protein mex-5 (Caenorhabditis elegans, UniProt Q9XUB2); assay: MEX-5/TCR-2 RNA interaction inhibitors, dose response, biochemical, C. elegans, fluorescence polarization (AID 1960)
T2 sequence (Q9XUB2 whole entry): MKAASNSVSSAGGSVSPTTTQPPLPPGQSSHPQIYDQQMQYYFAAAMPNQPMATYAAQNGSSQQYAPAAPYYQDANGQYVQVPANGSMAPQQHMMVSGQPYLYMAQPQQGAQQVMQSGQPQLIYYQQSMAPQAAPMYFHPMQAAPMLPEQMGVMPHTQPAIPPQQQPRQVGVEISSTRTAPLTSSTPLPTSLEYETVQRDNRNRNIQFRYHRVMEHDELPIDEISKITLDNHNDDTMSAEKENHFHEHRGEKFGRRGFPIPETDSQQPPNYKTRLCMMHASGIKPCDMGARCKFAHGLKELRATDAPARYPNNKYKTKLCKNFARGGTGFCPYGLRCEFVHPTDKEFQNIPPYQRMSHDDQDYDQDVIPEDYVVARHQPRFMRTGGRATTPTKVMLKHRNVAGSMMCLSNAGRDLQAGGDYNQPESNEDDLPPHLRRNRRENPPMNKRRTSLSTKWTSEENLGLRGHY

[8] = target: T3, RNA-binding protein pos-1 (Caenorhabditis elegans, UniProt G5EF15); assay: inhibitors of POS-1/mex-3 RNA binding, dose response, biochemical, fluorescence polarization (AID 1964);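 further: purified POS-1 fused to maltose binding protein made in E. coli; potency of compounds blocking POS-1 binding to fluorescent RNA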
T3 sequence (G5EF15 whole entry): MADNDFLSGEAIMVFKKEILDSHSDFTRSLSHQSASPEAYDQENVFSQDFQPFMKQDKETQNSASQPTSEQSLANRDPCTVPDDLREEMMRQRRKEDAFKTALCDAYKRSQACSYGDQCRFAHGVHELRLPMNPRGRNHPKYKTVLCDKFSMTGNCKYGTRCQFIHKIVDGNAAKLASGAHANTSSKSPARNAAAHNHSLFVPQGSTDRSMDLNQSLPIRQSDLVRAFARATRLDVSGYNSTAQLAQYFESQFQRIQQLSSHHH

Caspase-6 = target: T4, Caspase-6 (Homo sapiens, UniProt P55212); assay: human caspase-6 inhibitors, dose response, biochemical, VEID-R110 fluorescence, cherry-pick (AID 720632)
T4 sequence (P55212 whole entry): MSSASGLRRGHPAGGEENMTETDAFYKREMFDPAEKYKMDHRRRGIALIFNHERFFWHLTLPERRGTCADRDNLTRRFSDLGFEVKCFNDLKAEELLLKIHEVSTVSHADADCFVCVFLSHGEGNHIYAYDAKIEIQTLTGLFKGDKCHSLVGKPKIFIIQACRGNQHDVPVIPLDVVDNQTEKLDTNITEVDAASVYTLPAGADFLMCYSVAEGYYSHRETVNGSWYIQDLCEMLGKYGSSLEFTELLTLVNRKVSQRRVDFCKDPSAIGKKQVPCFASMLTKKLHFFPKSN

[9] = target: Peroxisome proliferator-activated receptor gamma/Nuclear receptor coactivator 1 (Homo sapiens, UniProt P37231); assay: TR-FRET dose response biochemical High Throughput Screening assay for agonists of the steroid receptor coactivator 1 (SRC-1) recruitment by the peroxisome proliferator-activated receptor gamma (PPAR gamma): non-selective agonists. [Related pubchem assays (depositor defined):AID1300, AID1808, AID504735, AID631]; format: protein assay
Chain of Peroxisome proliferator-activated receptor gamma/Nuclear receptor coactivator 1 (P37231 whole entry): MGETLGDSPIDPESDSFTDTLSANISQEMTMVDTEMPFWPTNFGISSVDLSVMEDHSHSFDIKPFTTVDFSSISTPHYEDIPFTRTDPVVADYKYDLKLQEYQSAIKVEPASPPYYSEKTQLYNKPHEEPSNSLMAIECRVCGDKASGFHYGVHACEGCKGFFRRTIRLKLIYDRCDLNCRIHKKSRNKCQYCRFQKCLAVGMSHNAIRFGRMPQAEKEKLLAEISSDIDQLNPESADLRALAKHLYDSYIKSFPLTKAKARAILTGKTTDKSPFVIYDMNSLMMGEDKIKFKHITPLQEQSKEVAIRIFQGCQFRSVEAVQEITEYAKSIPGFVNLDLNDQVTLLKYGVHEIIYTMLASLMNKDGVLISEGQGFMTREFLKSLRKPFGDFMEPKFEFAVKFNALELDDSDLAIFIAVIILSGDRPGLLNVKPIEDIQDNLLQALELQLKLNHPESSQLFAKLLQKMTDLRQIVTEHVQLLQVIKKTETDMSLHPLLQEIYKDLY
Chain of Peroxisome proliferator-activated receptor gamma/Nuclear receptor coactivator 1 (Q15788 whole entry, further chain): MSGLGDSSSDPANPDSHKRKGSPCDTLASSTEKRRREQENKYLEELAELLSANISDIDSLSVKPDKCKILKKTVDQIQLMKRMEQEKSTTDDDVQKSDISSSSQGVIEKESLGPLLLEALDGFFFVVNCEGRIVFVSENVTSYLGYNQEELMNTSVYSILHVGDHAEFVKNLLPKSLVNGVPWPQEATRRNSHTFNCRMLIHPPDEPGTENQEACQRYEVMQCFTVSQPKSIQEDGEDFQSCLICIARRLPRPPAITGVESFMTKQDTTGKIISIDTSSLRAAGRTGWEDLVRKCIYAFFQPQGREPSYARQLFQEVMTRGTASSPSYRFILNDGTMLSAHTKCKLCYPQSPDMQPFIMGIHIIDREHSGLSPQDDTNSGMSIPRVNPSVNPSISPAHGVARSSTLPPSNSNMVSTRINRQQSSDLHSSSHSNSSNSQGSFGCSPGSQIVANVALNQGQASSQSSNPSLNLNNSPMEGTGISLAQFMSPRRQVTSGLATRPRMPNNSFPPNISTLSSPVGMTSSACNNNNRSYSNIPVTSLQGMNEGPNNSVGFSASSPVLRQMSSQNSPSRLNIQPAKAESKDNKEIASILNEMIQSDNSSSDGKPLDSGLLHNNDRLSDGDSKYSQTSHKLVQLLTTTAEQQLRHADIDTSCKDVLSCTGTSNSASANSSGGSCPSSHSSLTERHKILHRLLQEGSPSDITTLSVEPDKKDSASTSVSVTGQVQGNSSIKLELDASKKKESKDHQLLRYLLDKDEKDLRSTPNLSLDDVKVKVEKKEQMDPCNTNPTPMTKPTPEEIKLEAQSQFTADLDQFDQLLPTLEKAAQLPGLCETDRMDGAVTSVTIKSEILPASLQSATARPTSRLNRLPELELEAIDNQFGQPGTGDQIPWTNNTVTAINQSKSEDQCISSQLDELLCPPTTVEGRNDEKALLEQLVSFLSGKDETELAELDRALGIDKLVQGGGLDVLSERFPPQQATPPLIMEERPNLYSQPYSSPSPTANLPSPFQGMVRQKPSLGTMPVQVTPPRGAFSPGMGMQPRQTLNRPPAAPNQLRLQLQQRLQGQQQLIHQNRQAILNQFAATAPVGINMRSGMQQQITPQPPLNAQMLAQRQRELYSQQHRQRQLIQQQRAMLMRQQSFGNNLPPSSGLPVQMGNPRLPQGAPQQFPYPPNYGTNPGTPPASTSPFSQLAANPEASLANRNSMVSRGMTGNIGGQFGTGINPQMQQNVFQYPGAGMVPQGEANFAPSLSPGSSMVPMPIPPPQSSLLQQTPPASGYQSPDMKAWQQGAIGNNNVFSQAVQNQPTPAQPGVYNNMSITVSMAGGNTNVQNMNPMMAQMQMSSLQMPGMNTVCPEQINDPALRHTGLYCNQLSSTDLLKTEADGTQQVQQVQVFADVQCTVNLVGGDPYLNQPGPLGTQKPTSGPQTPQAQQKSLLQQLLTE

[10] = target: Peroxisome proliferator-activated receptor gamma/Nuclear receptor coactivator 2 (Homo sapiens, UniProt P37231); assay: (§1) TR-FRET dose response biochemical High Throughput Screening assay for agonists of the steroid receptor coactivator 2 (SRC-2) recruitment by the peroxisome proliferator-activated receptor gamma (PPAR gamma): non-selective agonists. [Related pubchem assays: 1297, 1032 ]; format: functional
Chain of Peroxisome proliferator-activated receptor gamma/Nuclear receptor coactivator 2 (P37231 whole entry): as the sequence (P37231 whole entry) above
Chain of Peroxisome proliferator-activated receptor gamma/Nuclear receptor coactivator 2 (Q15596 whole entry, further chain): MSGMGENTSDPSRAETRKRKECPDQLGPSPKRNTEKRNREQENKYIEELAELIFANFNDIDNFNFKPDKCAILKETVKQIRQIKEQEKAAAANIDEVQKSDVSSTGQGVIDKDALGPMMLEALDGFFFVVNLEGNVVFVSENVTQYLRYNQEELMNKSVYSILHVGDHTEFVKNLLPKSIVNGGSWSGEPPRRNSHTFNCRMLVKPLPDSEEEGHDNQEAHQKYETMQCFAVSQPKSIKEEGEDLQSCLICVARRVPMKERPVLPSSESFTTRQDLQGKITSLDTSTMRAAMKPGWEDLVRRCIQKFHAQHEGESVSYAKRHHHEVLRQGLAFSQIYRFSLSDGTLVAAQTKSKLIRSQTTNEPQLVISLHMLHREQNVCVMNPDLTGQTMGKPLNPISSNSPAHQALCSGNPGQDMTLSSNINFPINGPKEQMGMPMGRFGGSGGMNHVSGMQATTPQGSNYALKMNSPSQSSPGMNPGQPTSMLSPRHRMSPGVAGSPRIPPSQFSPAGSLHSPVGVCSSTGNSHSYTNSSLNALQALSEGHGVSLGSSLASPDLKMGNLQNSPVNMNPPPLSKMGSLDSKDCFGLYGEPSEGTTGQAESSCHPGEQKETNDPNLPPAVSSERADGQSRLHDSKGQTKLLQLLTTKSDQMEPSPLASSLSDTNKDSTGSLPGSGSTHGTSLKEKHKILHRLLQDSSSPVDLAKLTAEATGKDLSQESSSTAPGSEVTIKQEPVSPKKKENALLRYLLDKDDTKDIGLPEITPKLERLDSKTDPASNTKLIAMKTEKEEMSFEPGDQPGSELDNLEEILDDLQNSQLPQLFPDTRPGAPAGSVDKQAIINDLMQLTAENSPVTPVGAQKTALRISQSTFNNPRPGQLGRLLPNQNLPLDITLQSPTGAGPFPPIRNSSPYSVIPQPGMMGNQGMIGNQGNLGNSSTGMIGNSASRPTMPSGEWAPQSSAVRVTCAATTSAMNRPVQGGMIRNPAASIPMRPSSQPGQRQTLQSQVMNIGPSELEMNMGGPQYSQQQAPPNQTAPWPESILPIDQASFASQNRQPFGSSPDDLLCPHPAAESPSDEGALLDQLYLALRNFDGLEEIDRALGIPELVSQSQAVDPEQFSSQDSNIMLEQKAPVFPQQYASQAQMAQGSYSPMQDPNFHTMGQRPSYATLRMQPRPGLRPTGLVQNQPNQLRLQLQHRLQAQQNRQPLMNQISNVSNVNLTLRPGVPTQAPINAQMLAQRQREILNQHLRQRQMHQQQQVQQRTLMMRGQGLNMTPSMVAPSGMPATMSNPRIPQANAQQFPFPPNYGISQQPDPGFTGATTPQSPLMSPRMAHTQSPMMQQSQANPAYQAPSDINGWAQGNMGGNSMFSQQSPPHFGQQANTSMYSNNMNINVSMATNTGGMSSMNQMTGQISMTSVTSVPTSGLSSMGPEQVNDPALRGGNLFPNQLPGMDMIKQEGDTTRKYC

[11] = target: Peroxisome proliferator-activated receptor gamma/Nuclear receptor coactivator 3 (Homo sapiens, UniProt P37231); assay: as §1, with “3 (SRC-3)” for “2 (SRC-2)”, “1301 (Confirmation screen.), 1048 (Primary screen.)]” for “1297, 1032 ]”; format: functional

SMILES: CCCn1c(=N)n(CC(O)c2ccco2)c2ccccc21 (stereo not given)
- IC50 [1]: > 100 µM (active)

SMILES: Cc1ccc(C(=O)N2c3ccc(F)cc3CCC2C)o1 (stereo not given)
- IC50 [1]: > 100 µM (active)

SMILES: COc1ccc(-c2cn(-c3ccc(C)c(Cl)c3)c(S)n2)cc1OC
- EC50 (cells): > 29.9 µM (inactive)
- IC50 (Galanin receptor type 3): > 29.9 µM (inactive)

SMILES: COc1ccc(N2CCN(CCNC(=O)Nc3ccc(Cl)cc3)CC2)cc1
- IC50 [1]: > 100 µM (active)

SMILES: COc1cccc(CNc2ccccc2O)c1OCc1ccccc1F
- IC50 [2]: > 100 µM (active)

SMILES: C=CCNc1nc2c(c(=O)n(C)c(=O)n2C)n1CCCCCC
- AC50 [3]: 2.6 µM (active)
- AC50 [4]: 1.18 µM (active)
- AC50 [5]: 0.761 µM (active)
- EC50 (cells): > 29.9 µM (inactive)
- IC50 (Galanin receptor type 3): 1.95 µM (active)
- AC50 [6]: 7.74 µM (active)

SMILES: N#CC1=C(N)Oc2cc(O)c(Cl)cc2C1c1ccccc1F (stereo not given)
- EC50 [7]: > 300 µM (not active)
- EC50 [8]: > 300 µM (not active)
- AC50 (Caspase-6): 42.2 µM (active)

SMILES: N#CC1=C(N)Oc2c(c(=O)oc3ccccc23)C1c1ccc([N+](=O)[O-])o1 (stereo not given)
- AC50 (Caspase-6): 13.9 µM (active)

SMILES: COc1c(F)c(F)c(C(=O)Nc2ccc3oc(-c4ccncc4)nc3c2)c(F)c1F
- EC50 [9]: 21.5 µM (inactive)
- EC50 [10]: 20.6 µM (not active)
- IC50 [1]: > 100 µM (active)
- EC50 [11]: 57.7 µM (not active)
